Measured values taken from US12599128B2, “Composition and method for improving agronomic traits of a plant” (THE BOARD OF TRUSTEES OF THE UNIVERSITY OF ILLINOIS, priority 2024, dated 2026).

Key:
Assay type in all cases: in vivo
[1] = test system: soybean plants (shoot apical meristem); experiment: Field trial 2: soybean seed production after spraying the shoot apical meristem
Method: (§1) FIG. 2 provides an example of an increase in soybean seed production following the removal of apical dominance by spraying with a double pass of 0.1M methyl decanoate (220.6±21.96 seeds/plant on average) at the V3 stage of growth compared to untreated controls (147.88±13.59 seeds/plant on average) conducted in Mt. Pulaski, Illinois. […] Asterisks show significance differences at the 0.05 level, + indicates a marginally significant difference at <0.10.
Field trial 2 was conducted at GroAlliance in Mt Pulaski, Illinois and planted with a soybean variety. Soybean plants were treated with a spray containing 0.10 M methyl decanoate and polyethylene sorbitan monolaurate. Soybean plants were sprayed using individual chemical backpack spray units. The soybean plants were treated with methyl decanoate at or between the growth stages of V3 and V4.
The test field was subdivided into plots with the dimensions of five rows by 10 feet. Two plots were designated for each soybean variety for spray treatment and distributed geographically across the full test field. Untreated control plots and mechanically clipped plants at the same growth stage were adjacent to the test plot areas.

[2] = test system: soybean plants (shoot apical meristem); experiment: Field trial 1: soybean seed production after spraying the shoot apical meristem
Method: as §1, with “1” for “2”, “(199.0±14.14” for “(220.6±21.96”, “V5” for “V3”, “(160.47±5.33” for “(147.88±13.59”, “Pleasant Plains,” for “Mt. Pulaski,”, “level.” for “level, + indicates a marginally significant difference at <0.10.”
Field trial 1 was conducted in Pleasant Plants, Illinois. A single soybean variety was used in the field trial. The soybean variety was planted in 20 plots. Each plot was composed of 8 rows of plants spaced 30 inches apart and was 50 feet long by 20 feet wide. Soybeans were treated with 0.10 M methyl decanoate spray. An undiluted surfactant, polyoxyethylene sorbitan monolaurate, was added in equal weight to the fatty ester. Additional spray was applied by completion of a second pass with 0.10 M methyl decanoate spray. The second pass was completed immediately after the initial treatment of each row to saturate the apical meristem.
Soybean plants were sprayed using an individual chemical spray backpack. The plants were sprayed with approximately 2.5 gallons/1000 sq feet of 0.1 M (or an equivalent of 110 gallons/acre) with the double pass. Soybean plants were sprayed with methyl decanoate at the V5 growth stage.
The overall experiment was designed to distribute untreated control plots and mechanically clipped plants at the same growth stage with the methyl decanoate treated variety across the test field.

[3] = test system: soybean plants (shoot apical meristem); experiment: Field trial 3: soybean seed production after spraying the shoot apical meristem
Method: FIG. 3 provides an example of an increase in soybean seed production following the removal of apical dominance by spraying with a double pass of 0.1M methyl decanoate (97.85±4.43 seeds/plant on average) at the V4-V6 stage of growth compared to untreated controls (79.81±3.09 seeds/plant on average) conducted in Lowell, Indiana. […] Asterisks show significance differences at the 0.05 level.
Field trial 3 was conducted in Lowell, Indiana and a single soybean variety was tested. Soybean plants were treated with a double pass of methyl decanoate at a concentration of 0.10 M. The methyl decanoate spray contained an undiluted surfactant, polyoxyethylene sorbitan monolaurate, that was added in equal weight to the fatty ester.
Soybean plants were treated the methyl decanoate spray using a backpack spray unit. Soybeans were sprayed in between growth stages V4-V6. The test plots were 21 rows by 50 feet.

**Q.** With `CCCCCCCCCC(=O)OC` [methyl decanoate] as the compound, how does the “seed yield compared to untreated control plants (in words)” value ([1]; 0.10 M spray with surfactant, at or between V3 and V4) read?
**A.** The value was “increased seed yield”.

**Q.** And the “higher seed production than the untreated control” value ([1]; double pass of 0.1M spray at V3 stage, Mt. Pulaski, Illinois, F=2.74, p=0.084)?
**A.** The value was 38.4%.

**Q.** And the “soybean seed production (seeds/plant on average)” value ([1]; double pass of 0.1M spray at V3 stage, Mt. Pulaski, Illinois, untreated controls 147.88±13.59)?
**A.** Its value is 220.6±21.96 seeds/plant.

**Q.** What about the “seed yield compared to untreated control plants (in words)” value ([2]; 0.10 M spray with polyoxyethylene sorbitan monolaurate, V5 growth stage) of the same compound?
**A.** The value was “increased seed yield”.

**Q.** And the “higher seed production than the untreated control” value ([2]; double pass of 0.1M spray at V5 stage, Pleasant Plains, Illinois, F=3.33, p=0.046)?
**A.** The value was 24%.

**Q.** What about the “soybean seed production (seeds/plant on average)” value ([2]; double pass of 0.1M spray at V5 stage, Pleasant Plains, Illinois, untreated controls 160.47±5.33) of the same compound?
**A.** The value was 199.0±14.14 seeds/plant.

**Q.** What about the “seed yield compared to untreated control plants (in words)” value ([3]; double pass 0.10 M spray with polyoxyethylene sorbitan monolaurate, V4-V6) of the same compound?
**A.** Its value is “increased seed yield”.

**Q.** And the “higher seed production than the untreated control” value ([3]; double pass of 0.1M spray at V4-V6 stage, Lowell, Indiana, F=5.63, p=0.005)?
**A.** Its value is 22.6%.

**Q.** And the “soybean seed production (seeds/plant on average)” value ([3]; double pass of 0.1M spray at V4-V6 stage, Lowell, Indiana, untreated controls 79.81±3.09)?
**A.** Its value is 97.85±4.43 seeds/plant.
